Experimental findings from ChEMBL document CHEMBL3804772, “Enantioselective synthesis and antioxidant activity of 3,4,5-substituted piperidine derivatives” (Bioorg Med Chem Lett, 2016) are described below.

Structures are written as SMILES.

A short description of this data set: Antioxidant activity assessed as ABTS radical scavenging activity after 60 mins. The data set is classed as physicochemical.
In the case of `Cc1ccc([C@H]2[C@H](CO)CN(Cc3ccccc3)C[C@H]2ON2C(C)(C)CCCC2(C)C)cc1`, the IC50 is 0.09 µM. In the case of `CC1(C)CCCC(C)(C)N1[O]` it was 0.026 µM; in that of `CCOC(=O)[C@@H]1C(=O)N(Cc2ccccc2)C[C@@H](ON2C(C)(C)CCCC2(C)C)[C@H]1c1ccc(C)cc1`, 98.4 µM. In the case of `CCOC(=O)[C@@H]1C(=O)N(Cc2ccccc2)C[C@@H](O)[C@H]1c1ccccc1` it was greater than 100 µM; in that of `CC(=O)OC[C@@H]1CN(Cc2ccccc2)C[C@@H](ON2C(C)(C)CCCC2(C)C)[C@H]1c1ccccc1`, 0.573 µM; in that of `O=c1c(O)c(-c2ccc(O)c(O)c2)oc2cc(O)cc(O)c12` [QUERCETIN], 5.57 µM. Then `O=C1O[C@H]([C@@H](O)CO)C(O)=C1O` [ASCORBIC ACID], with 25.6 µM. Turning to `CC1(C)CCCC(C)(C)N1O[C@@H]1CN(Cc2ccccc2)C[C@@H](CO)[C@@H]1c1ccccc1`, the IC50 was 0.093 µM. Then `Cc1ccc([C@H]2[C@H](CO)CN(Cc3ccccc3)C[C@H]2O)cc1`, with 85.3 µM. For the molecule `CCOC(=O)[C@@H]1C(=O)N(Cc2ccccc2)C[C@@H](O)[C@H]1c1ccc(C)cc1`, the concentration for half-maximal inhibition (IC50) is greater than 100 µM. In the case of `CCOC(=O)[C@@H]1C(=O)N(Cc2ccccc2)CC[C@H]1c1ccccc1` it was greater than 100 µM; in that of `CCOC(=O)[C@@H]1C(=O)N(Cc2ccccc2)C[C@@H](O)[C@H]1c1ccc(F)cc1`, greater than 100 µM; in that of `OC[C@@H]1CN(Cc2ccccc2)C[C@@H](O)[C@H]1c1ccccc1`, greater than 100 µM.

With `CC1(C)CCCC(C)(C)N1O[C@@H]1CN(Cc2ccccc2)C[C@@H](CO)[C@@H]1c1ccc(F)cc1`, the IC50 worked out at 0.095 µM.

On to `CCOC(=O)[C@@H]1C(=O)N(Cc2ccccc2)C[C@@H](ON2C(C)(C)CCCC2(C)C)[C@H]1c1ccccc1`, for which the half-maximal inhibitory concentration (IC50) turned out to be 12.2 µM. In the case of `CCOC(=O)[C@@H]1C(=O)N(Cc2ccccc2)C[C@@H](ON2C(C)(C)CCCC2(C)C)[C@H]1c1ccc(F)cc1` it was 15.9 µM. In the case of `OC[C@@H]1CN(Cc2ccccc2)C[C@@H](O)[C@H]1c1ccc(F)cc1` it was 9.61 µM; in that of `OC[C@@H]1CN(Cc2ccccc2)CC[C@H]1c1ccccc1`, greater than 100 µM.
